# Test results reported in article PMC5735085, “A 1-phytase type III effector interferes with plant hormone signaling” (Nature Communications, 2017).
# Target: T1, HopAO1 (Pseudomonas syringae group genomosp. 3, UniProt Q79LY0)
# T1 construct: gene hopD2; full-length, N-terminal 6xHis (pMCSG57-hopAO1, DNASU), E. coli BL21-CodonPlus(DE3)-RIL
# Assay: in vitro phytate degradation
# Format: biochemical
# T1 sequence (Q79LY0 whole entry): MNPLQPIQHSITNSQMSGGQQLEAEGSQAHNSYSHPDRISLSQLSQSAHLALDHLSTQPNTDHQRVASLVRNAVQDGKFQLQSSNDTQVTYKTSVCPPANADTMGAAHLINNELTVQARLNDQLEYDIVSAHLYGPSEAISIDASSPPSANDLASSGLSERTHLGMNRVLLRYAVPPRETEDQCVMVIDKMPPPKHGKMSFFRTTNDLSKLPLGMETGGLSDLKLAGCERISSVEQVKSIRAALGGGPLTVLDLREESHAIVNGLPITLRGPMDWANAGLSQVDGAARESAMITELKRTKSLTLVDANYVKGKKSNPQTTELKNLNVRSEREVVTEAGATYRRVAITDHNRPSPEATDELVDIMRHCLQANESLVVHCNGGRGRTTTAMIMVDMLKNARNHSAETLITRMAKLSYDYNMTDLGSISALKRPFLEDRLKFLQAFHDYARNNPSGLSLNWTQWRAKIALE
smiles,measurement,value
O=P(O)(O)O[C@H]1[C@H](OP(=O)(O)O)[C@@H](OP(=O)(O)O)[C@H](OP(=O)(O)O)[C@@H](OP(=O)(O)O)[C@H]1OP(=O)(O)O [InsP6],in vitro phytate degradation,"HopAO1 degraded phytate in vitro but, in contrast to XopH, to lower phosphorylated"
